Converted amounts (≈) assume the structure as drawn. Like-named read-outs stand apart in the source and are kept apart here. *1 amine or outer side, *2 acyl side, *3 side chain or, on linkers, in order; H or OH if unused. Where a SMILES comes first, the peptide text is derived from it. Bridges are numbered along the chain shown (N, C = ends). [ ]: non-standard residue; d: D form. The star is where a group is joined. NH(1,3-benzodioxol-5-yl) = c1cc2c(cc1N*)OCO2; Phe(3,5-F2) = N[C@@H](Cc1cc(F)cc(F)c1)C(=O)O; NH(4-OCF3-phenyl) = FC(F)(F)Oc1ccc(N*)cc1; Morpholine(3S-CO) = O=C(O)[C@@H]1COCCN1; Pro(4S-Me) = C[C@@H]1CN[C@H](C(=O)O)C1; NH(4-Cl-2-F-phenyl) = Fc1cc(Cl)ccc1N*; Pro(4R-Me) = C[C@H]1CN[C@H](C(=O)O)C1; Hyp = O=C(O)[C@@H]1C[C@@H](O)CN1; NH(4-Et-phenyl) = CCc1ccc(N*)cc1; Heptenoyl(2E) = CCCC/C=C/C(=O)*; NH(4-Me-phenyl) = Cc1ccc(N*)cc1; aThr = C[C@H](O)[C@H](N)C(=O)O; Pip = O=C(O)[C@@H]1CCCCN1; X2 = CN1CCc2ccc(N*)cc21; X4 = c1cc2c(cc1N*)CCC2; X8 = c1cc2c(cc1N*)CCO2; X6 = Cc1cc(C)cc(N*)c1; CO = O=C([*:1])[*:2]; X7 = CC/C=C/C(=O)*
Columns and labels:
Assay type in all cases: cell-based
[1] = Cytotoxicity assay (CellTiter-Glo cell viability, 72 hours); conditions: African green monkey
Method in brief: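 Viability measured by CellTiter-Glo luminescence after 72-hour compound exposure (serial dilutions, DMSO control) of Vero monolayers seeded at 5000 cells/well in 10% FBS DMEM. IC50 values are the range of two biologically independent experiments, each run in duplicate.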

[2] = tested on: Enterococcus faecalis, ATCC 33186; assay: Minimal inhibitory concentration assay (microbroth dilution)
Method in brief: (§1)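 Compound is serially diluted two-fold in the appropriate broth, and bacterial inoculum at about 10^5 cfu/mL is added so the highest final concentration is 200 μM. Plates stay overnight at 37 °C under aerobic conditions before growth is scored by eye.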

[3] = tested on: Staphylococcus aureus, USA 300 wherein ClpP is inactivated; assay: Minimal inhibitory concentration assay
Method in brief: as §1

[4] = tested on: Staphylococcus aureus, USA 300; assay: Minimal inhibitory concentration assay; conditions: USA300, read-out: Minimal Inhibitory Concentrations S. aureus USA 300
Method in brief: as §1

[5] = Enterococcus faecalis, ATCC33186; read-out: Minimal Inhibitory Concentrations E. faecalis ATCC 33186
[6] = Vero cells, 72 hours, growth inhibition, read-out: Cytotoxicity IC50
[7] = Enterococcus faecalis, ATCC33186, read-out: Minimal Inhibitory Concentrations E. faecalis ATCC 33186

| Structure (SMILES) | IC50 at 72 h [1] [µM] | MIC [2, 5] [µM] | Minimal Inhibitory Concentrations S. aureus USA 300 ΔClpP [3] [µM] | MIC [4] [µM] | IC50 at 72 h [1, 6] [µM] | MIC [2, 7] [µM] |
| --- | --- | --- | --- | --- | --- | --- |
| Cc1cc(C)cc(NC(=O)N[C@@H](Cc2cc(F)cc(F)c2)C(=O)N[C@@H]2C(=O)N3CCC[C@H]3C(=O)N3CCCC[C@H]3C(=O)N[C@@H](C)C(=O)N3C[C@H](C)C[C@H]3C(=O)O[C@H]2C)c1 [Compound 304, (S)-3-(3,5-difluorophenyl)-2-(3-(3,5-dimethylphenyl)ureido)-N-((2R,6S,8aS,14aS,20S,21S,23aS)-2,6,21-trimethyl-5,8,14,19,23-pentaoxooctadecahydro-1H,5H,14H,19H-pyrido[2,1-i]dipyrrolo[2,1-c:2′,1′-l][1]oxa[4,7,10,13]tetraazacyclo-hexadecin-20-yl)propanamide] ({X6-CO}-[Phe(3,5-F2)][aThr]P[Pip]A[Pro(4R-Me)]; ester 2-C) | 21.3 ± 1.6 | 0.029 (≈ 0.0238 µg/mL) | >20 | 0.079 (≈ 0.0649 µg/mL) | – | – |
| CCCC/C=C/C(=O)N[C@@H](Cc1cc(F)cc(F)c1)C(=O)N[C@@H]1C(=O)N2C[C@H](O)C[C@H]2C(=O)N2CCCC[C@H]2C(=O)N[C@@H](C)C(=O)N2C[C@H](C)C[C@H]2C(=O)O[C@H]1C [Compound 301, (E)-N—((S)-3-(3,5-difluorophenyl)-1-(((2R,6S,8aS,14aS,16R,20S,21S,23aS)-16-hydroxy-2,6,21-trimethyl-5,8,14,19,23-pentaoxooctadecahydro-1H,5H,14H,19H-pyrido[2,1-i]dipyrrolo[2,1-c:2′,1′-l][1]oxa[4,7,10,13]tetraazacyclohexadecin-20-yl)amino)-1-oxopropan-2-yl)hept-2-enamide] ({Heptenoyl(2E)}-[Phe(3,5-F2)][aThr][Hyp][Pip]A[Pro(4R-Me)]; ester 2-C) | – | – | >20 | 0.079 (≈ 0.0633 µg/mL) | 61.1 ± 1.7 | < 0.0098 |
| Cc1ccc(NC(=O)N[C@@H](Cc2cc(F)cc(F)c2)C(=O)N[C@H]2COC(=O)[C@@H]3C[C@@H](C)CN3C(=O)[C@H](C)NC(=O)[C@@H]3COCCN3C(=O)[C@@H]3C[C@@H](O)CN3C2=O)cc1 [Compound 317, (S)-3-(3,5-difluorophenyl)-N-((6aS,8R,12S,15aS,17R,21S,23aS)-8-hydroxy-17,21-dimethyl-6,11,15,20,23-pentaoxooctadecahydro-6H,11H,15H-[1,4]oxazino[3,4-i]dipyrrolo[2,1-c:2′,1′-l][1]oxa[4,7,10,13]tetraazacyclohexadecin-12-yl)-2-(3-(p-tolyl)ureido)propanamide] ({NH(4-Me-phenyl)-CO}-[Phe(3,5-F2)]S[Hyp][Morpholine(3S-CO)]A[Pro(4R-Me)]; ester 2-C) | – | – | 12.5 | 12.5 (≈ 10.1 µg/mL) | > 100 | 0.313 (≈ 0.254 µg/mL) |
| C[C@@H]1C[C@H]2C(=O)O[C@@H](C)[C@H](NC(=O)[C@H](Cc3cc(F)cc(F)c3)NC(=O)Nc3ccc4c(c3)CCC4)C(=O)N3CCC[C@H]3C(=O)N3CCCC[C@H]3C(=O)N[C@@H](C)C(=O)N2C1 [Compound 302, (S)-3-(3,5-difluorophenyl)-2-(3-(2,3-dihydro-1H-INDEN-5-yl)ureido)-N-((2R,6S,8aS,14aS,20S,21S,23aS)-2,6,21-trimethyl-5,8,14,19,23-pentaoxooctadecahydro-1H,5H,14H,19H-pyrido[2,1-i]dipyrrolo[2,1-c:2′,1′-l][1]oxa[4,7,10,13]tetraazacyclohexadecin-20-yl)propanamide] ({X4-CO}-[Phe(3,5-F2)][aThr]P[Pip]A[Pro(4R-Me)]; ester 2-C) | – | – | >20 | 0.059 (≈ 0.0492 µg/mL) | 13.2 ± 1.1 | 0.02 (≈ 0.0167 µg/mL) |
| CCc1ccc(NC(=O)N[C@@H](Cc2cc(F)cc(F)c2)C(=O)N[C@@H]2C(=O)N3C[C@H](O)C[C@H]3C(=O)N3CCOC[C@H]3C(=O)N[C@@H](C)C(=O)N3C[C@H](C)C[C@H]3C(=O)O[C@H]2C)cc1 [Compound 320, (S)-3-(3,5-difluorophenyl)-2-(3-(4-ethylphenyl)ureido)-N-((6aS,8R,12S,13S,15aS,17R,21S,23aS)-8-hydroxy-13,17,21-trimethyl-6,11,15,20,23-pentaoxooctadecahydro-6H,11H,15H-[1,4]oxazino[3,4-i]dipyrrolo[2,1-c:2′,1′-l][1]oxa[4,7,10,13]-tetraazacyclohexadecin-12-yl)propanamide] ({NH(4-Et-phenyl)-CO}-[Phe(3,5-F2)][aThr][Hyp][Morpholine(3S-CO)]A[Pro(4R-Me)]; ester 2-C) | > 100 | 0.078 (≈ 0.0655 µg/mL) | 0.7812 | 0.781 (≈ 0.656 µg/mL) | – | – |
| C[C@@H]1C[C@H]2C(=O)O[C@@H](C)[C@H](NC(=O)[C@H](Cc3cc(F)cc(F)c3)NC(=O)Nc3ccc4c(c3)N(C)CC4)C(=O)N3CCC[C@H]3C(=O)N3CCCC[C@H]3C(=O)N[C@@H](C)C(=O)N2C1 [Compound 321, (S)-3-(3,5-difluorophenyl)-2-(3-(1-methylindolin-6-yl)ureido)-N-((2R,6S,8aS,14aS,20S,21S,23aS)-2,6,21-trimethyl-5,8,14,19,23-pentaoxooctadecahydro-1H,5H,14H,19H-pyrido[2,1-i]dipyrrolo[2,1-c:2′,1′-l][1]oxa[4,7,10,13]tetraazacyclo-hexadecin-20-yl)propanamide] ({X2-CO}-[Phe(3,5-F2)][aThr]P[Pip]A[Pro(4R-Me)]; ester 2-C) | – | – | <0.098 | < 0.098 | 1.39 ± 0.1 | 0.078 (≈ 0.0662 µg/mL) |
| CC/C=C/C(=O)N[C@@H](Cc1cc(F)cc(F)c1)C(=O)N[C@@H]1C(=O)N2C[C@H](O)C[C@H]2C(=O)N2CCCC[C@H]2C(=O)N[C@@H](C)C(=O)N2C[C@H](C)C[C@H]2C(=O)O[C@H]1C [Compound 300] (X7-[Phe(3,5-F2)][aThr][Hyp][Pip]A[Pro(4R-Me)]; ester 2-C) | – | – | >20 | 2.5 (≈ 1.93 µg/mL) | > 100 | 0.039 (≈ 0.0301 µg/mL) |
| C[C@H]1C[C@H]2C(=O)O[C@@H](C)[C@H](NC(=O)[C@H](Cc3cc(F)cc(F)c3)NC(=O)Nc3ccc(OC(F)(F)F)cc3)C(=O)N3CCC[C@H]3C(=O)N3CCOC[C@H]3C(=O)N[C@@H](C)C(=O)N2C1 [Compound 201, (S)-3-(3,5-difluorophenyl)-2-(3-(4-(trifluoromethoxy)phenyl)ureido)-N-((6aS,12S,13S,15aS,17S,21S,23aS)-13,17,21-trimethyl-6,11,15,20,23-pentaoxooctadecahydro-6H,11H,15H-[1,4]oxazino[3,4-i]dipyrrolo[2,1-c:2′,1′-l][1]oxa[4,7,10,13]tetraazacyclohexadecin-12-yl)propanamide] ({NH(4-OCF3-phenyl)-CO}-[Phe(3,5-F2)][aThr]P[Morpholine(3S-CO)]A[Pro(4S-Me)]; ester 2-C) | 26 ± 2.6 | 0.098 (≈ 0.0862 µg/mL) | 50 | 0.049 (≈ 0.0431 µg/mL) | – | – |
| C[C@@H]1C[C@H]2C(=O)O[C@@H](C)[C@H](NC(=O)[C@H](Cc3cc(F)cc(F)c3)NC(=O)Nc3ccc(Cl)cc3F)C(=O)N3CCC[C@H]3C(=O)N3CCCC[C@H]3C(=O)N[C@@H](C)C(=O)N2C1 [Compound 307, (S)-2-(3-(4-chloro-2-fluorophenyl)ureido)-3-(3,5-difluorophenyl)-N-((2R,6S,8aS,14aS,20S,21S,23aS)-2,6,21-trimethyl-5,8,14,19,23-pentaoxooctadecahydro-1H,5H,14H,19H-pyrido[2,1-i]dipyrrolo[2,1-c:2′,1′-l][1]oxa[4,7,10,13]tetraazacyclo-hexadecin-20-yl)propanamide] ({NH(4-Cl-2-F-phenyl)-CO}-[Phe(3,5-F2)][aThr]P[Pip]A[Pro(4R-Me)]; ester 2-C) | 9.5 ± 0.8 | < 0.02 | >20 | < 0.02 | – | – |
| C[C@@H]1C[C@H]2C(=O)O[C@@H](C)[C@H](NC(=O)[C@H](Cc3cc(F)cc(F)c3)NC(=O)Nc3ccc4c(c3)CCO4)C(=O)N3CCC[C@H]3C(=O)N3CCCC[C@H]3C(=O)N[C@@H](C)C(=O)N2C1 [Compound 305, (S)-3-(3,5-difluorophenyl)-2-(3-(2,3-dihydrobenzofuran-5-yl)ureido)-N-((2R,6S,8aS,14aS,20S,21S,23aS)-2,6,21-trimethyl-5,8,14,19,23-pentaoxooctadecahydro-1H,5H,14H,19H-pyrido[2,1-i]dipyrrolo[2,1-c:2′,1′-l][1]oxa[4,7,10,13]tetraazacyclo-hexadecin-20-yl)propanamide] ({X8-CO}-[Phe(3,5-F2)][aThr]P[Pip]A[Pro(4R-Me)]; ester 2-C) | – | – | >20 | 0.24 (≈ 0.201 µg/mL) | 39 ± 2.7 | 0.029 (≈ 0.0242 µg/mL) |
| C[C@@H]1C[C@H]2C(=O)O[C@@H](C)[C@H](NC(=O)[C@H](Cc3cc(F)cc(F)c3)NC(=O)Nc3ccc4c(c3)OCO4)C(=O)N3C[C@H](O)C[C@H]3C(=O)N3CCOC[C@H]3C(=O)N[C@@H](C)C(=O)N2C1 [Compound 319, (S)-2-(3-(benzo[d][1,3]dioxol-5-yl)ureido)-3-(3,5-difluorophenyl)-N-((6aS,8R,12S,13S,15aS,17R,21S,23aS)-8-hydroxy-13,17,21-trimethyl-6,11,15,20,23-pentaoxooctadecahydro-6H,11H,15H-[1,4]oxazino[3,4-i]dipyrrolo[2,1-c:2′,1′-l][1]oxa[4,7,10,13]tetraazacyclo-hexadecin-12-yl)propanamide] ({NH(1,3-benzodioxol-5-yl)-CO}-[Phe(3,5-F2)][aThr][Hyp][Morpholine(3S-CO)]A[Pro(4R-Me)]; ester 2-C) | > 100 | 0.313 (≈ 0.268 µg/mL) | 25 | 25 (≈ 21.4 µg/mL) | – | – |
